Test results reported in US20250382305A1 (PTC THERAPEUTICS, INC., priority 2022, published 2025).
pIC50: −log10 of the molar value.

Tests used:
[1] = tested on: Total ATXN3 (tATXN3) protein; experiment: Endogenous Total ATXN3 (tATXN3) Protein Assay (MSD immunoassay of cell lysates); format: cell-based; conditions: average IC50, total ATXN3 protein in cell lysate after 48 h with compound (Table 1)
Method in brief: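 By electrochemiluminescent MSD sandwich immunoassay (mouse monoclonal capture, rabbit monoclonal and SULFO-TAG anti-rabbit detection), endogenous ATXN3 was quantified in lysates of cells treated 48 h at 37° C at 10,000 cells/well. Treatment used a 7-point 3.16-fold duplicate dilution series, with average IC50 grouped into star categories.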

[2] = tested on: ATXN3 pre-mRNA; experiment: RT-qPCR Assay to Quantify Exon 4 Skipping in ATXN3 pre-mRNA in Cells; format: cell-based; conditions: percent exon 4 skipping in ATXN3 pre-mRNA, RT-qPCR of cell lysates; average IC50
Method in brief: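 IC50 derives from a dose-response fit of percent exon 4 skipping, quantified by RT-qPCR on crude lysates. Compounds tested as 7-point 3.16-fold dilutions in duplicate; cells (10,000/well) were exposed for 24 h at 37 °C before lysis.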

Q: `N[C@H]1CC=CC[C@@H]1c1sc2c(NCc3ccco3)nc(Cl)nc2c1Br` [Compound 168, 6-((1S,6S)-6-aminocyclohex-3-en-1-yl)-7-bromo-2-chloro-N-(furan-2-ylmethyl)thieno[3,2-d]pyrimidin-4-amine] was tested. Which pIC50 [1] did it give?
A: ≥ 7.52

Q: And the pIC50 [2]?
A: ≥ 7.52

Q: `CCc1c([C@H]2CCC[C@@H]2N)sc2c(NCc3cccs3)cc(Cl)nc12` [Compound 11, 2-((1S,2S)-2-aminocyclopentyl)-5-chloro-3-ethyl-N-(thiophen-2-ylmethyl)thieno[3,2-b]pyridin-7-amine] was tested. Which pIC50 [1] did it give?
A: 6.00 to 6.52

Q: And the pIC50 [2]?
A: 6.52 to 7.52

Q: With “2-((3R,4S)-3-aminotetrahydro-2H-pyran-4-yl)-5-chloro-3-(prop-1-yn-1-yl)-N-(thiophen-2-ylmethyl)thieno[3,2-b]pyridin-7-amine and 2-((3S,4R)-3-aminotetrahydro-2H-pyran-4-yl)-5-chloro-3-(prop-1-yn-1-yl)-N-(thiophen-2-ylmethyl)thieno[3,2-b]pyridin-7-amine [Compound 227]” as the compound, how does the pIC50 [1] read?
A: ≥ 7.52

Q: What about the pIC50 [2] of the same compound?
A: ≥ 7.52

Q: How did the pIC50 [1] turn out when `N[C@@H]1CCCO[C@H]1c1c(Cl)c2nc(Cl)nc(NCc3cccs3)c2n1C(F)F.N[C@H]1CCCO[C@@H]1c1c(Cl)c2nc(Cl)nc(NCc3cccs3)c2n1C(F)F` (mixture of isomers) [Compound 346, 6-((2S,3S)-3-aminotetrahydro-2H-pyran-2-yl)-2,7-dichloro-5-(difluoromethyl)-N-(thiophen-2-ylmethyl)-5H-pyrrolo[3,2-d]pyrimidin-4-amine and 6-((2R,3R)-3-aminotetrahydro-2H-pyran-2-yl)-2,7-dichloro-5-(difluoromethyl)-N-(thiophen-2-ylmethyl)-5H-pyrrolo[3,2-d]pyrimidin-4-amine] was run?
A: 6.52 to 7.52

Q: And the pIC50 [2]?
A: 6.52 to 7.52

Q: Which results are given for `N[C@H]1CC=CC[C@@H]1c1sc2c(NCc3ccncc3F)cc(Cl)nc2c1Cl` [Compound 239, 2-((1S,6S)-6-aminocyclohex-3-en-1-yl)-3,5-dichloro-N-((3-fluoropyridin-4-yl)methyl)thieno[3,2-b]pyridin-7-amine]?
A: pIC50 [1]: ≥ 7.52; pIC50 [2]: ≥ 7.52

Q: With `N[C@H]1CCCCC[C@H]1c1cc2nc(Cl)cc(NCc3cccs3)c2s1` [Compound 89, 2-((1R,2S)-2-aminocycloheptyl)-5-chloro-N-(thiophen-2-ylmethyl)thieno[3,2-b]pyridin-7-amine] as the compound, how does the pIC50 [1] read?
A: < 6.00

Q: And the pIC50 [2]?
A: < 6.00

Q: With “2-((3R,4S)-3-aminotetrahydro-2H-pyran-4-yl)-3-bromo-5-chloro-N-(furan-2-ylmethyl)thieno[3,2-b]pyridin-7-amine and 2-((3S,4R)-3-aminotetrahydro-2H-pyran-4-yl)-3-bromo-5-chloro-N-(furan-2-ylmethyl)thieno[3,2-b]pyridin-7-amine [Compound 316]” as the compound, how does the pIC50 [1] read?
A: 6.52 to 7.52

Q: And the pIC50 [2]?
A: 6.52 to 7.52

Q: With `N[C@H]1CC=CC[C@@H]1c1sc2c(NCc3ccncc3F)nc(Cl)nc2c1Cl` [Compound 236, 6-((1S,6S)-6-aminocyclohex-3-en-1-yl)-2,7-dichloro-N-((3-fluoropyridin-4-yl)methyl)thieno[3,2-d]pyrimidin-4-amine] as the compound, how does the pIC50 [1] read?
A: ≥ 7.52

Q: What about the pIC50 [2] of the same compound?
A: ≥ 7.52

Q: Which results are given for `N[C@@H]1CCC[C@H]1c1sc2c(NCc3ccccc3)cc(Cl)nc2c1Br` [Compound 161, 2-((1R,2R)-2-aminocyclopentyl)-N-benzyl-3-bromo-5-chlorothieno[3,2-b]pyridin-7-amine]?
A: pIC50 [1]: < 6.00; pIC50 [2]: < 6.00

Q: With “2-((2R,3S)-3-aminotetrahydrofuran-2-yl)-3-bromo-5-chloro-N-(thiophen-2-ylmethyl)thieno[3,2-b]pyridin-7-amine and 2-((2S,3R)-3-aminotetrahydrofuran-2-yl)-3-bromo-5-chloro-N-(thiophen-2-ylmethyl)thieno[3,2-b]pyridin-7-amine [Compound 150]” as the compound, how does the pIC50 [1] read?
A: 6.52 to 7.52

Q: What about the pIC50 [2] of the same compound?
A: 6.52 to 7.52

Q: `C/C=C/CNc1cc(Cl)nc2c(Cl)c([C@H]3CC=CC[C@@H]3N)sc12` [Compound 302, 2-((1S,6S)-6-aminocyclohex-3-en-1-yl)-N-((E)-but-2-en-1-yl)-3,5-dichlorothieno[3,2-b]pyridin-7-amine] was tested. Which pIC50 [1] did it give?
A: 6.52 to 7.52

Q: What about the pIC50 [2] of the same compound?
A: 6.52 to 7.52

Q: Which results are given for `N[C@H]1CCCO[C@@H]1c1c(I)c2nc(Cl)nc(NCc3ccco3)c2n1C(F)F` [Compound 225, 6-((2S,3S)-3-aminotetrahydro-2H-pyran-2-yl)-2-chloro-5-(difluoromethyl)-N-(furan-2-ylmethyl)-7-iodo-5H-pyrrolo[3,2-d]pyrimidin-4-amine]?
A: pIC50 [1]: ≥ 7.52; pIC50 [2]: ≥ 7.52

Q: What does the source list for `N[C@H]1CC=CC[C@@H]1c1sc2c(NCc3ccncc3)nc(Cl)nc2c1Cl` [Compound 214, 6-((1S,6S)-6-aminocyclohex-3-en-1-yl)-2,7-dichloro-N-(pyridin-4-ylmethyl)thieno[3,2-d]pyrimidin-4-amine]?
A: pIC50 [1]: ≥ 7.52; pIC50 [2]: ≥ 7.52

Q: How did the pIC50 [1] turn out when `Cc1c([C@@H]2CCCCC[C@H]2N)sc2c(NCc3cccs3)cc(Cl)nc12` [Compound 83, 2-((1R,2R)-2-aminocycloheptyl)-5-chloro-3-methyl-N-(thiophen-2-ylmethyl)thieno[3,2-b]pyridin-7-amine] was run?
A: < 6.00

Q: And the pIC50 [2]?
A: < 6.00

Q: What does the source list for “2-((1S,6S)-6-aminocyclohex-3-en-1-yl)-5-chloro-N-(thiophen-2-ylmethyl)thieno[3,2-b]pyridin-7-amine [Compound 448]”?
A: pIC50 [1]: < 6.00; pIC50 [2]: 6.52 to 7.52

Q: `N[C@@H]1CC=CC[C@H]1c1c(I)c2nc(Cl)nc(NCc3ccccc3)c2n1C(F)F` [Compound 424, 6-((1R,6R)-6-aminocyclohex-3-en-1-yl)-N-benzyl-2-chloro-5-(difluoromethyl)-7-iodo-5H-pyrrolo[3,2-d]pyrimidin-4-amine] was tested. Which pIC50 [1] did it give?
A: 6.52 to 7.52

Q: What about the pIC50 [2] of the same compound?
A: ≥ 7.52

Q: `N[C@@H]1CCOC[C@H]1c1sc2c(NCc3cccs3)cc(Cl)nc2c1Cl` [Compound 405, 2-((3S,4R)-4-aminotetrahydro-2H-pyran-3-yl)-3,5-dichloro-N-(thiophen-2-ylmethyl)thieno[3,2-b]pyridin-7-amine] was tested. Which pIC50 [1] did it give?
A: ≥ 7.52

Q: And the pIC50 [2]?
A: ≥ 7.52

Q: With `N[C@H]1CC=CC[C@@H]1c1sc2c(NCc3nccs3)nc(Cl)nc2c1Cl` [Compound 340, 6-((1S,6S)-6-aminocyclohex-3-en-1-yl)-2,7-dichloro-N-(thiazol-2-ylmethyl)thieno[3,2-d]pyrimidin-4-amine] as the compound, how does the pIC50 [1] read?
A: 6.52 to 7.52

Q: What about the pIC50 [2] of the same compound?
A: 6.52 to 7.52

Q: How did the pIC50 [1] turn out when `N[C@H]1CC=CC[C@@H]1c1sc2c(NCc3cccs3)cc(Cl)nc2c1C#CCCCCCO` [Compound 320, 7-(2-((1S,6S)-6-aminocyclohex-3-en-1-yl)-5-chloro-7-((thiophen-2-ylmethyl)amino)thieno[3,2-b]pyridin-3-yl)hept-6-yn-1-ol] was run?
A: 6.52 to 7.52

Q: What about the pIC50 [2] of the same compound?
A: 6.52 to 7.52

Q: `N[C@@H]1CCCO[C@H]1c1c(Br)c2nc(Cl)cc(NCc3ccco3)c2n1C(F)F` [Compound 426, 2-((2R,3R)-3-aminotetrahydro-2H-pyran-2-yl)-3-bromo-5-chloro-1-(difluoromethyl)-N-(furan-2-ylmethyl)-1H-pyrrolo[3,2-b]pyridin-7-amine] was tested. Which pIC50 [1] did it give?
A: 6.00 to 6.52

Q: What about the pIC50 [2] of the same compound?
A: 6.52 to 7.52

Q: How did the pIC50 [1] turn out when `Cc1c([C@H]2CC=CC[C@@H]2N)sc2c(NCc3nccs3)nc(Cl)nc12` [Compound 223, 6-((1S,6S)-6-aminocyclohex-3-en-1-yl)-2-chloro-7-methyl-N-(thiazol-2-ylmethyl)thieno[3,2-d]pyrimidin-4-amine] was run?
A: ≥ 7.52

Q: What about the pIC50 [2] of the same compound?
A: ≥ 7.52

Q: With “2-((2R,3R)-3-aminotetrahydro-2H-pyran-2-yl)-5-chloro-N-(furan-2-ylmethyl)-3-methylthieno[3,2-b]pyridin-7-amine and 2-((2S,3S)-3-aminotetrahydro-2H-pyran-2-yl)-5-chloro-N-(furan-2-ylmethyl)-3-methylthieno[3,2-b]pyridin-7-amine [Compound 25]” as the compound, how does the pIC50 [1] read?
A: 6.52 to 7.52

Q: And the pIC50 [2]?
A: 6.52 to 7.52

Q: Which results are given for `C#Cc1c([C@@H]2CCOC[C@H]2N)sc2c(NCc3ccco3)nc(Cl)nc12.C#Cc1c([C@H]2CCOC[C@@H]2N)sc2c(NCc3ccco3)nc(Cl)nc12` (mixture of isomers) [Compound 330, 6-((3R,4S)-3-aminotetrahydro-2H-pyran-4-yl)-2-chloro-7-ethynyl-N-(furan-2-ylmethyl)thieno[3,2-d]pyrimidin-4-amine and 6-((3S,4R)-3-aminotetrahydro-2H-pyran-4-yl)-2-chloro-7-ethynyl-N-(furan-2-ylmethyl)thieno[3,2-d]pyrimidin-4-amine]?
A: pIC50 [1]: 6.52 to 7.52; pIC50 [2]: 6.52 to 7.52

Q: “2-((1S,6S)-6-aminocyclohex-3-en-1-yl)-3-bromo-5-chloro-N-(thiophen-2-ylmethyl)thieno[3,2-b]pyridin-7-amine and 2-((1R,6R)-6-aminocyclohex-3-en-1-yl)-3-bromo-5-chloro-N-(thiophen-2-ylmethyl)thieno[3,2-b]pyridin-7-amine [Compound 256]” was tested. Which pIC50 [1] did it give?
A: 6.52 to 7.52

Q: What about the pIC50 [2] of the same compound?
A: ≥ 7.52

Q: `N[C@H]1COCC[C@@H]1c1sc2c(NCc3nccs3)cc(Cl)nc2c1I` [Compound 265, 2-((3R,4S)-3-aminotetrahydro-2H-pyran-4-yl)-5-chloro-3-iodo-N-(thiazol-2-ylmethyl)thieno[3,2-b]pyridin-7-amine] was tested. Which pIC50 [1] did it give?
A: 6.52 to 7.52

Q: What about the pIC50 [2] of the same compound?
A: ≥ 7.52

Q: `N[C@H]1CC=CC[C@@H]1c1sc2c(NCc3cccs3)cc(Cl)nc2c1C#Cc1cccnc1` [Compound 307, 2-((1S,6S)-6-aminocyclohex-3-en-1-yl)-5-chloro-3-(pyridin-3-ylethynyl)-N-(thiophen-2-ylmethyl)thieno[3,2-b]pyridin-7-amine] was tested. Which pIC50 [1] did it give?
A: 6.52 to 7.52

Q: What about the pIC50 [2] of the same compound?
A: 6.52 to 7.52

Q: `CC#CCNc1cc(Cl)nc2c(Br)c([C@H]3CC(C)=C(C)C[C@@H]3N)sc12` [Compound 249, 2-((1S,6S)-6-amino-3,4-dimethylcyclohex-3-en-1-yl)-3-bromo-N-(but-2-yn-1-yl)-5-chlorothieno[3,2-b]pyridin-7-amine] was tested. Which pIC50 [1] did it give?
A: 6.52 to 7.52

Q: And the pIC50 [2]?
A: ≥ 7.52
